Each structure is given as a SMILES string.

The nature of the data set: Water solubility by quantitative analysis (HPLC). Type of data set: physicochemical. Particulars: for Water solubility (μg/mL, HPLC) 24 hr: comparison of salt forms of Compound 1; for water solubility: quantitative analysis by HPLC, crystalline form of the salt. On the procedure: (4) Quantitative Analysis (HPLC)
Approximately 26.7 mg of the sample was precisely weighed and placed in a 500 mL volumetric flask. 450 mL of a diluted solution (methanol:purified water=1:1) was added thereto, completely dissolved, and then filled with the diluted solution up to the marked line. HPLC equipment and analysis methods are represented in Table 1 below.
Quantitative analysis was carried out in the same manner as in Example 2.
Various types of salts were prepared. After analyzing characteristics in the same manner as above, the comparisons with potassium salt and methanesulfonic acid salt (mesylate) are represented in Table 4 below.

Take `CC(C)n1nc(Cl)c2cc(COc3ccc4c(c3)CCC(CN3CCC(C(=O)O)CC3)=C4Cl)ccc21` [Free form, 1-[1-Chloro-6-(3-chloro-1-isopropyl-1H-indazol-5-ylmethoxy)-3,4-dihydro-naphthalen-2-ylmethyl]-piperidine-4-carboxylic acid]: the solubility at 24 h (thermodynamic from solid, HPLC quantitation, 24 hr, comparison of salt forms of Compound 1, read-out: Water solubility (μg/mL, HPLC) 24 hr) amounted to 3.7 µg/mL.
In the case of `CC(C)n1nc(Cl)c2cc(COc3ccc4c(c3)CCC(CN3CCC(C(=O)[O-])CC3)=C4Cl)ccc21.[K+]` [K salt (1 eq.), potassium salt of 1-[1-chloro-6-(3-chloro-1-isopropyl-1H-indazol-5-ylmethoxy)-3,4-dihydro-naphthalen-2-ylmethyl]-piperidine-4-carboxylic acid], the water solubility was determined as 33.2385 mg/mL. For the setting “HPLC quantitation, 24 hr”, the “Water solubility (μg/mL, HPLC) 24 hr” value is 33238.5 µg/mL.
The matching figures for `CC(C)n1nc(Cl)c2cc(COc3ccc4c(c3)CCC(CN3CCC(C(=O)O)CC3)=C4Cl)ccc21.CS(=O)(=O)O` [Mesylate (1 eq.), methanesulfonic acid salt (mesylate) of 1-[1-chloro-6-(3-chloro-1-isopropyl-1H-indazol-5-ylmethoxy)-3,4-dihydro-naphthalen-2-ylmethyl]-piperidine-4-carboxylic acid]: 0.5368 mg/mL and 536.8 µg/mL.
